Results published in patent US20250231185A1, “Coronavirus T Cell Epitopes, Megapools and Uses Thereof” (La Jolla Institute for Immunology, priority 2021, published 2025).

System: CD8+ T cells
Test: Meta-analysis of published SARS-CoV-2 CD8 T cell epitope data curated in the IEDB (25 studies)
Type: cell-based, human
Settings: CD8-restricted SARS-CoV-2 epitopes; Yes = recognized by 3 or more donors/different studies

Row | Substance | Dominant
1 | 1104 (MDLFMRIFTI) [compound 1104] | Yes (more dominant epitopes are defined by being recognized by 3 or more donors/different studies)
2 | 1105 (RIFTIGTVTLK) [compound 1105] | Yes (more dominant epitopes are defined by being recognized by 3 or more donors/different studies)
3 | 1107 (FVRATATIPI) [compound 1107] | Yes (more dominant epitopes are defined by being recognized by 3 or more donors/different studies)
4 | 1109 (IPIQASLPF) [compound 1109] | Yes (more dominant epitopes are defined by being recognized by 3 or more donors/different studies)
5 | 1111 (IVGVALLAVF) [compound 1111] | Yes (more dominant epitopes are defined by being recognized by 3 or more donors/different studies)
6 | 1117 (ITLKKRWQLAL) [compound 1117] | Yes (more dominant epitopes are defined by being recognized by 3 or more donors/different studies)
7 | 1119 (ALSKGVHFV) [compound 1119] | Yes (more dominant epitopes are defined by being recognized by 3 or more donors/different studies)

Same assay, conditions: CD8 epitopes; Yes = recognized by 3 or more donors/different studies

Row | Substance | Dominant
8 | 420 (SLVKPSFYV) [compound 420] | Yes (more dominant epitopes are defined by being recognized by 3 or more donors/different studies)
9 | 423 (YVYSRVKNL) [compound 423] | Yes (more dominant epitopes are defined by being recognized by 3 or more donors/different studies)
10 | 425 (GTITVEELK) [compound 425] | Yes (more dominant epitopes are defined by being recognized by 3 or more donors/different studies)
11 | 426 (KLLEQWNLV) [compound 426] | Yes (more dominant epitopes are defined by being recognized by 3 or more donors/different studies)
12 | 427 (FLFLTWICL) [compound 427] | Yes (more dominant epitopes are defined by being recognized by 3 or more donors/different studies)
13 | 429 (LQFAYANRNRFLY) [compound 429] | Yes (more dominant epitopes are defined by being recognized by 3 or more donors/different studies)
14 | 437 (NRFLYIIKL) [compound 437] | Yes (more dominant epitopes are defined by being recognized by 3 or more donors/different studies)
15 | 442 (TLACFVLAAV) [compound 442] | Yes (more dominant epitopes are defined by being recognized by 3 or more donors/different studies)
16 | 451 (SYFIASFRLFA) [compound 451] | Yes (more dominant epitopes are defined by being recognized by 3 or more donors/different studies)
17 | 455 (RLFARTRSMW) [compound 455] | Yes (more dominant epitopes are defined by being recognized by 3 or more donors/different studies)
18 | 457 (SMWSFNPET) [compound 457] | Yes (more dominant epitopes are defined by being recognized by 3 or more donors/different studies)
19 | 463 (SELVIGAVIL) [compound 463] | Yes (more dominant epitopes are defined by being recognized by 3 or more donors/different studies)
20 | 466 (AVILRGHLR) [compound 466] | Yes (more dominant epitopes are defined by being recognized by 3 or more donors/different studies)
21 | 467 (HLRIAGHHLGR) [compound 467] | Yes (more dominant epitopes are defined by being recognized by 3 or more donors/different studies)
22 | 471 (TVATSRTLSYYK) [compound 471] | Yes (more dominant epitopes are defined by being recognized by 3 or more donors/different studies)
23 | 475 (ATSRTLSYYK) [compound 475] | Yes (more dominant epitopes are defined by being recognized by 3 or more donors/different studies)
24 | 476 (ATSRTLSYY) [compound 476] | Yes (more dominant epitopes are defined by being recognized by 3 or more donors/different studies)
25 | 477 (ASQRVAGDSGFAAY) [compound 477] | Yes (more dominant epitopes are defined by being recognized by 3 or more donors/different studies)
26 | 484 (RYRIGNYKL) [compound 484] | Yes (more dominant epitopes are defined by being recognized by 3 or more donors/different studies)
27 | 491 (NTASWFTAL) [compound 491] | Yes (more dominant epitopes are defined by being recognized by 3 or more donors/different studies)
28 | 492 (KFPRGQGVPI) [compound 492] | Yes (more dominant epitopes are defined by being recognized by 3 or more donors/different studies)
29 | 493 (FPRGQGVPI) [compound 493] | Yes (more dominant epitopes are defined by being recognized by 3 or more donors/different studies)
30 | 494 (NTNSSPDDQIGYY) [compound 494] | Yes (more dominant epitopes are defined by being recognized by 3 or more donors/different studies)
31 | 497 (YYRRATRRIR) [compound 497] | Yes (more dominant epitopes are defined by being recognized by 3 or more donors/different studies)
32 | 498 (RIRGGDGKMK) [compound 498] | Yes (more dominant epitopes are defined by being recognized by 3 or more donors/different studies)
33 | 499 (KMKDLSPRW) [compound 499] | Yes (more dominant epitopes are defined by being recognized by 3 or more donors/different studies)

Same assay, conditions: SARS-CoV-2-derived CD8 epitopes; dominant = recognized by 3 or more donors/different studies

Row | Substance | Dominant
34 | 719 (NYMPYFFTL) [compound 719] | Yes (more dominant epitopes are defined by being recognized by 3 or more donors/different studies)
35 | 723 (ASMPTTIAK) [compound 723] | Yes (more dominant epitopes are defined by being recognized by 3 or more donors/different studies)
36 | 737 (SLDTYPSLETI) [compound 737] | Yes (more dominant epitopes are defined by being recognized by 3 or more donors/different studies)
37 | 745 (AYILFTRFFYV) [compound 745] | Yes (more dominant epitopes are defined by being recognized by 3 or more donors/different studies)
38 | 747 (ILFTRFFYV) [compound 747] | Yes (more dominant epitopes are defined by being recognized by 3 or more donors/different studies)
39 | 754 (YIFFASFYY) [compound 754] | Yes (more dominant epitopes are defined by being recognized by 3 or more donors/different studies)
40 | 772 (QLMCQPILLL) [compound 772] | Yes (more dominant epitopes are defined by being recognized by 3 or more donors/different studies)
41 | 781 (STFNVPMEK) [compound 781] | Yes (more dominant epitopes are defined by being recognized by 3 or more donors/different studies)
42 | 808 (FLPRVFSAV) [compound 808] | Yes (more dominant epitopes are defined by being recognized by 3 or more donors/different studies)
43 | 810 (FSAVGNICY) [compound 810] | Yes (more dominant epitopes are defined by being recognized by 3 or more donors/different studies)
44 | 816 (SLRPDTRYVL) [compound 816] | Yes (more dominant epitopes are defined by being recognized by 3 or more donors/different studies)
45 | 818 (RPDTRYVL) [compound 818] | Yes (more dominant epitopes are defined by being recognized by 3 or more donors/different studies)
46 | 833 (TFYLTNDVSFL) [compound 833] | Yes (more dominant epitopes are defined by being recognized by 3 or more donors/different studies)
47 | 841 (FLLNKEMYL) [compound 841] | Yes (more dominant epitopes are defined by being recognized by 3 or more donors/different studies)
48 | 848 (TSEDMLNPNY) [compound 848] | Yes (more dominant epitopes are defined by being recognized by 3 or more donors/different studies)
49 | 851 (TPKYKFVRI) [compound 851] | Yes (more dominant epitopes are defined by being recognized by 3 or more donors/different studies)
50 | 852 (VRIQPGQTF) [compound 852] | Yes (more dominant epitopes are defined by being recognized by 3 or more donors/different studies)
51 | 856 (FLNGSCGSV) [compound 856] | Yes (more dominant epitopes are defined by being recognized by 3 or more donors/different studies)
52 | 858 (GTDLEGNFY) [compound 858] | Yes (more dominant epitopes are defined by being recognized by 3 or more donors/different studies)
53 | 860 (VLAWLYAAV) [compound 860] | Yes (more dominant epitopes are defined by being recognized by 3 or more donors/different studies)
54 | 861 (FLNRFTTTL) [compound 861] | Yes (more dominant epitopes are defined by being recognized by 3 or more donors/different studies)
55 | 866 (SAFAMMFVK) [compound 866] | Yes (more dominant epitopes are defined by being recognized by 3 or more donors/different studies)
56 | 872 (FLLPSLATV) [compound 872] | Yes (more dominant epitopes are defined by being recognized by 3 or more donors/different studies)
57 | 874 (MPASWVMRI) [compound 874] | Yes (more dominant epitopes are defined by being recognized by 3 or more donors/different studies)
58 | 877 (KLKDCVMYA) [compound 877] | Yes (more dominant epitopes are defined by being recognized by 3 or more donors/different studies)
59 | 882 (SMWALIISV) [compound 882] | Yes (more dominant epitopes are defined by being recognized by 3 or more donors/different studies)
60 | 883 (NYSGVVTTVMF) [compound 883] | Yes (more dominant epitopes are defined by being recognized by 3 or more donors/different studies)
61 | 887 (TLGVYDYLVST) [compound 887] | Yes (more dominant epitopes are defined by being recognized by 3 or more donors/different studies)
62 | 896 (SEFSSLPSY) [compound 896] | Yes (more dominant epitopes are defined by being recognized by 3 or more donors/different studies)

System: CD8+ T cells
Test: not given
Settings: HLA-A*01:01 epitopes overlapping TTDPSFLGRY; Saini et al.; cited from earlier work

Row | Substance | dominance as reported
63 | TTDPSFLGRYM [nsp3 819-829] | particularly dominant

Same assay, conditions: Habel et al., 14 peptides screened; HLA-A*02:01; cited from earlier work

Row | Substance | IFN-f response
64 | VLNDILSRL [SEQ ID NO: 1508] | less prominently recognized

Same assay, conditions: Nelde et al.; HLA-A*01:01 restricted; cited from earlier work

Row | Substance | positive in donors tested [%]
65 | TTDPSFLGRY [nsp3 819-828] | 83
